According to ChEMBL document CHEMBL6178021, “Optimization of Tambjamines Active against Multiple Stages of Malaria Parasites” (J Med Chem, 2025):
pIC50: −log10 of the molar value. Values after ≈ are worked out from the molar mass of the structure shown.

Assays:
[1] = system: Plasmodium falciparum; test: Antiplasmodial activity against asexual blood-stage Plasmodium falciparum Tm90-C2B using 2% haematocrit and 0.2% parasitemia assessed as reduction in fluorescence measured after 72 hrs by Malaria SYBR Green I-based Fluorescence (MSF) assay; type: functional, organism-based
[2] = Solubility of the compound in potassium phosphate buffer at pH 7.4 by UV-vis spectroscopy; details: buffer
[3] = Metabolic stability in human liver microsomes assessed as half life measured up to 60 mins by LC/MS analysis; type: ADME, Microsome
[4] = Metabolic stability in mouse liver microsomes assessed as half life measured up to 60 mins by LC/MS analysis; type: ADME, Microsome
[5] = in vitro; details: human
Description: Selectivity index, ratio of IC50 for cytotoxicity against human HepG2 cells to IC50 for antiplasmodial activity against asexual blood-stage Plasmodium falciparum D6

[6] = system: HepG2; test: Cytotoxicity against human HepG2 cells assessed as cell viability measured after 48 hrs by MTT assay; type: toxicity, cell-based; details: hepg2
[7] = system: MDR1 (human); test: Efflux ratio, ratio of apparent permeability across apical to basolateral side over basolateral to apical side in MDCK transfected with human MDR1 cells incubated for 1 hr by LC-MS analysis; details: dog
[8] = system: Plasmodium falciparum; test: microbe, parasite or virus in culture; details: D6, 72 h
Description: Antiplasmodial activity against asexual blood-stage Plasmodium falciparum D6 using 2% haematocrit and 0.2% parasitemia assessed as reduction in fluorescence measured after 72 hrs by Malaria SYBR Green I-based Fluorescence (MSF) assay

[9] = system: Plasmodium yoelii; test: Antimalarial activity against erythrocytic Plasmodium yoelii MRA-428 infected in CF1 mouse assessed as reduction in parasitemia at 25 mg/kg, po once daily for 4 days measured on day 5; type: functional; design: scale not given: the % may be the effect or the level left; details: time 4 day
[10] = system: Plasmodium yoelii; test: Antimalarial activity against erythrocytic Plasmodium yoelii MRA-428 infected in CF1 mouse assessed as reduction in parasitemia at 10 mg/kg, po once daily for 4 days measured on day 5; type: functional; design: scale not given: the % may be the effect or the level left; details: time 4 day
[11] = system: MDR1 (human); test: Apparent permeability across apical to basolateral side in MDCK transfected with human MDR1 cells incubated for 1 hr by LC-MS analysis; details: dog, MDCK-MDR1
[12] = system: Plasmodium falciparum; test: microbe, parasite or virus in culture; details: Dd2, 72 h
Description: Antiplasmodial activity against asexual blood-stage Plasmodium falciparum Dd2 using 2% haematocrit and 0.2% parasitemia assessed as reduction in fluorescence measured after 72 hrs by Malaria SYBR Green I-based Fluorescence (MSF) assay

[13] = system: MDR1 (human); test: Apparent permeability across basolateral to apical side in MDCK transfected with human MDR1 cells incubated for 1 hr by LC-MS analysis; details: dog, MDCK-MDR1
[14] = in vitro; details: human, liver microsomes
[15] = system: Plasmodium yoelii; test: Antimalarial activity against erythrocytic Plasmodium yoelii MRA-428 infected in CF1 mouse assessed as reduction in parasitemia at 50 mg/kg, po once daily for 4 days measured on day 5; type: functional; design: scale not given: the % may be the effect or the level left; details: time 4 day
[16] = in vitro; details: mouse, liver microsomes

| Compound | pIC50 [1] | solubility [2] | half-life [3] | half-life [4] | selectivity ratio [5] | pIC50 [6] | efflux ratio at 1 h [7] | pIC50 [8] | Activity [9] | Activity [10] | Papp A→B at 1 h [11] | pIC50 [12] | Papp B→A at 1 h [13] | microsomal CLint at 1 h [14] | Activity [15] | microsomal CLint at 1 h [16] |
| --- | --- | --- | --- | --- | --- | --- | --- | --- | --- | --- | --- | --- | --- | --- | --- | --- |
| CCC1=C(CC)/C(=C/NC23C[C@H]4C[C@@H](C2)C[C@@H](C3)C4)N=C1c1ccc(Cl)[nH]1 | 8.14 | 40 µM (≈ 15.4 µg/mL) | > 60 min | > 60 min | 315 | 5.35 | 0.22 | 7.85 | 90.7% | 23.2% | 0.34 ×10⁻⁶ cm/s | 8.05 | 0.074 ×10⁻⁶ cm/s |  |  |  |
| COC(=O)[C@H]1CC[C@H](N/C=C2\N=C(c3ccc[nH]3)C3=C2CCCC3)CC1 | 6.77 | 383 µM (≈ 135 µg/mL) | 16.7 min | 10.3 min | 334 | 4.70 | 4.8 |  |  |  | 0.23 ×10⁻⁶ cm/s | 6.80 | 1.1 ×10⁻⁶ cm/s | 82.9 µL/min/mg | 100% | 134 µL/min/mg |
| CCC1=C(CC)/C(=C/NC23C[C@H]4C[C@@H](C2)C[C@@H](C3)C4)N=C1c1ccc(-c2ccccc2)[nH]1 | 8.74 | < 3.125 µM | 46.9 min | 15.1 min | 800 | 5.69 |  | 8.59 |  | 0% | 2.85 ×10⁻⁶ cm/s | 8.88 | 0.002 ×10⁻⁶ cm/s | 29.5 µL/min/mg |  | 91.8 µL/min/mg |
| CCC1=C(CC)/C(=C/NC23C[C@H]4C[C@@H](C2)C[C@@H](C3)C4)N=C1c1ccc(-c2ccc(OC)cc2)[nH]1 | 8.10 | 12.4 µM (≈ 5.65 µg/mL) | 12.2 min | 12.1 min | 113 | 6.00 | 0.53 | 8.05 |  | 11.5% | 0.03 ×10⁻⁶ cm/s | 8.27 | 0.016 ×10⁻⁶ cm/s | 114 µL/min/mg |  | 110 µL/min/mg |
| CCc1ccc(C2=N/C(=C\NC3CCCCC3)C3=C2OCCO3)[nH]1 | 8.87 | 131 µM (≈ 42.9 µg/mL) | 51.3 min | 16.7 min | 308 | 5.71 | 5.2 | 8.20 | 19.4% | 0% | 0.25 ×10⁻⁶ cm/s | 7.92 | 1.3 ×10⁻⁶ cm/s | 27 µL/min/mg |  | 82.8 µL/min/mg |
| CCC1=C(CC)/C(=C/NC23C[C@H]4C[C@@H](C2)C[C@@H](C3)C4)N=C1c1cc2cc(OC)ccc2[nH]1 | 7.25 | 24.4 µM (≈ 10.5 µg/mL) | > 60 min | > 60 min | 125 | 5.28 | 0.59 | 7.38 | 93.8% | 87.2% | 0.002 ×10⁻⁶ cm/s | 7.34 | 0.001 ×10⁻⁶ cm/s | 6.19 µL/min/mg |  | 9.13 µL/min/mg |
| C(/NC12C[C@H]3C[C@@H](C1)C[C@@H](C2)C3)=C1/N=C(c2ccc[nH]2)C2=C1OCCO2 | 8.41 | 114 µM (≈ 40.1 µg/mL) | 11.7 min | 27.9 min | 444 | 5.42 | 6.1 |  |  | 0% | 0.14 ×10⁻⁶ cm/s | 8.08 | 0.85 ×10⁻⁶ cm/s | 118 µL/min/mg |  | 49.8 µL/min/mg |
| CCC1=C(CC)/C(=C/NC23C[C@H]4C[C@@H](C2)C[C@@H](C3)C4)N=C1c1ccc(Cc2ccc(OC)cc2)[nH]1 | 8.40 | 26.2 µM (≈ 12.3 µg/mL) | > 60 min | > 60 min | 775 | 5.79 | 0.21 | 8.68 |  | 0% | 0.04 ×10⁻⁶ cm/s | 9.06 | 0.008 ×10⁻⁶ cm/s | 11.7 µL/min/mg |  | 4.57 µL/min/mg |
| COC1=C(OC)/C(=C/NC2CCCCCC2)N=C1c1ccc[nH]1 | 7.41 | 199 µM (≈ 62.8 µg/mL) | 16.1 min | 14.6 min | 290 | 4.78 | 2.7 | 7.24 | 81.2% | 8.81% | 1.02 ×10⁻⁶ cm/s | 7.45 | 2.78 ×10⁻⁶ cm/s | 85.9 µL/min/mg |  | 94.7 µL/min/mg |
| COc1ccc(C2=C(c3ccc(OC)cc3)/C(=C/NC34C[C@H]5C[C@@H](C3)C[C@@H](C4)C5)N=C2c2ccc[nH]2)cc1 | 7.82 | 10.7 µM (≈ 5.41 µg/mL) | 52.1 min | > 60 min | 496 | 5.10 | 0.079 |  |  |  | 0.059 ×10⁻⁶ cm/s | 7.82 | 0.005 ×10⁻⁶ cm/s | 26.6 µL/min/mg |  | 12.2 µL/min/mg |
